The values that follow come from patent publication US6407112B1, “Optically active tetrahydrobenzindole derivative” (Meiji Seika Kaisha, Ltd., priority 1998, dated 2002).

What is called Ki is a measure of affinity in units of concentration, obtained from inhibition or displacement.

Assay [1] deals with T1, cloned human 5-HT7 receptor (Homo sapiens, UniProt P34969).
T1 construct: expressed in transfected cells
Description: 5-HT7 receptor-binding assay ([3H]-5CT). Particulars: for Selectivity (ratio of Ki (5-HT2) with Ki (5-HT7)): Ki (5-HT2, rat cortex) / Ki (5-HT7, cloned human). The method, then:
5-HT7 Receptor-binding Assay
Membranes from culture cells expressing cloned human 5-HT7 receptor were harvested and homogenized in 50 mM Tris-HCl assay buffer (pH 7.4) containing 10 mM MgCl2 and 0.5 mM EDTA with a potter-type homogenizer, and the suspension was centrifuged at 4° C., 39,000×g for 20 minutes. The resulting pellet was resuspended in the assay buffer at a proportion of 1 ml per an amount of a piece of culture petri dish having a diameter of 10 cm, and homogenized again.
The incubation was terminated by rapid filtration through GB/B filter, washed with 6 ml of ice-cold 50 mM Tris-HCl buffer (pH 7.4). The bound radioactivity was determined by liquid scintillation counter. While, non-specific binding was determined in the presence of 10 μM metergoline. The specific binding was calculated from the bound radioactivity after subtraction of non-specific binding.

For assay [2], the target named is T2, 5-HT2 receptor (rat cerebral cortex P2 fraction) (Rattus norvegicus, UniProt P14842).
T2 construct: Rat cerebral cortex was homogenized in 10 volumes of 0.32 M sucrose solution; from tissue; host or cells: rat cerebral cortex, P2 membrane fraction
T2 sequence (P14842 whole entry): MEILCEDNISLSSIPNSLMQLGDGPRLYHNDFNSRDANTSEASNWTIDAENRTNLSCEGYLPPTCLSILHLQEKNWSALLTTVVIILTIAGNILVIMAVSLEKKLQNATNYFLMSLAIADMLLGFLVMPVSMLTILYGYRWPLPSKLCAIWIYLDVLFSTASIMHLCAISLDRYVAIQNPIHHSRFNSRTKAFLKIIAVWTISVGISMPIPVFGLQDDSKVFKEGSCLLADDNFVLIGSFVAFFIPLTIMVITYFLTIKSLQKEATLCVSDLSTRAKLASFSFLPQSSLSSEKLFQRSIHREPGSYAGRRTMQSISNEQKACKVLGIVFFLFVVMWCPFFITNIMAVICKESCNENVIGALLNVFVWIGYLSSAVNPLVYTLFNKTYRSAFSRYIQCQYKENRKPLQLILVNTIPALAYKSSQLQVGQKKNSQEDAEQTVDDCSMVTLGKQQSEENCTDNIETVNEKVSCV
Briefly: 5-HT2 receptor-binding assay ([3H]ketanserin). The method, then:
5-HT2 Receptor-binding Assay
Rat cerebral cortex was homogenized in 10 volumes of 0.32 M sucrose solution. The supernatant obtained by centrifuging at 900×g for 10 minutes was further centrifuged at 11,500×g for 20 minutes. The pellet was resuspended in 50 mM Tris-HCl buffer (pH 7.4) and then centrifuged at 39,900×g for 20 minutes. The final pellet was used a P2 fraction.
P2 fraction was incubated in 50 mM tris-HCl buffer (pH 7.4) containing 1 nM [^3H]ketanserin and the compound of the present invention at 37° C. for 15 minutes and terminated by rapid filtration through GF/B filters. The bound radioactivity was determined by liquid scintillation counter. While, non-specific binding was determined in the presence of 10 μM ketanserin. Thus, the specific binding was calculated from the bound radioactivity after the subtraction of non-specific binding.

[3] abbreviates: rat cerebral cortex P2 fraction, 1 nM [3H]ketanserin, 37° C., 15 minutes, Ki calculated from IC50, read-out: Receptor Binding Affinity Ki Value (5-HT2).
Where [4] appears, read: membranes of cultured cells expressing cloned human 5-HT7 receptor, 1 nM [3H]-5CT, 37° C., 30 minutes, Ki calculated from IC50, read-out: Receptor Binding Affinity Ki Value (5-HT7).

Structures are written as SMILES. Like-named read-outs stand apart in the source and are kept apart here.

T1 sequence (P34969 whole entry): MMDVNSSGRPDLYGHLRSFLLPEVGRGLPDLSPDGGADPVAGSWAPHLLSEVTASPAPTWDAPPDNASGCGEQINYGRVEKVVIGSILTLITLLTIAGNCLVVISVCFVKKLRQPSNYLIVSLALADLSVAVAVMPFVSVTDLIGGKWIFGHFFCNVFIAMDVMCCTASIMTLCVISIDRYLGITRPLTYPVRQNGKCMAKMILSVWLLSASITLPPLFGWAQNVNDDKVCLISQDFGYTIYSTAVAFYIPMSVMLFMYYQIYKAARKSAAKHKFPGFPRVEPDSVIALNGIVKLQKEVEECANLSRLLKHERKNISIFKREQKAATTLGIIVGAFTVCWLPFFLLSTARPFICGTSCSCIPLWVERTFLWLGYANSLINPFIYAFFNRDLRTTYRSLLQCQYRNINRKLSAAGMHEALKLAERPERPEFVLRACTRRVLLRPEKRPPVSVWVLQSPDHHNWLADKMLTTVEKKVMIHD

With `COc1ccccc1N1CCN(CCCCC23CCCc4cccc(c42)NC3=O)CC1` (racemic) [Racemic Mixture of Synthesis Example 14, reference compound], the “Selectivity (ratio of Ki (5-HT2) with Ki (5-HT7))” value in assay [1] is given as 7. In assay [2] (setting [3]), the Ki was 60 nM.
For `O=C1Nc2cccc3c2C1(CCCCN1CC=C(c2ccccc2)CC1)CCC3` (racemic) [Racemic Mixture of Synthesis Example 15, reference compound], the values for the Ki in assay [1] and in assay [2] were 9 nM and 92 nM, respectively. Also, the “Selectivity (ratio of Ki (5-HT2) with Ki (5-HT7))” value in assay [1] was 10.
Turning to `CN(C)C(=O)n1c2c(c3ccccc31)CCN(CCCCC13CCCc4cccc(c41)NC3=O)C2` (racemic) [Racemic Mixture of Synthesis Example 17, reference compound], the “Selectivity (ratio of Ki (5-HT2) with Ki (5-HT7))” value in assay [1] amounted to 121. Moreover, the figures for the Ki in assay [1] (setting [4]) and in assay [2] (setting [3]) were 8 nM and 970 nM, respectively.
On to `O=C1Nc2cccc3c2C1(CCCCN1CCc2ccccc2C1)CCC3` (racemic) [Racemic Mixture of Synthesis Example 18, reference compound], for which, in assay [1], the “Selectivity (ratio of Ki (5-HT2) with Ki (5-HT7))” value is 79. In addition, the Ki in assay [1] (setting [4]) is 8 nM; in assay [2] (setting [3]), 628 nM.
In the case of `CNC(=O)Cn1c2c(c3ccccc31)CCN(CCCCC13CCCc4cccc(c41)NC3=O)C2` (racemic) [Racemic Mixture of Synthesis Example 22, reference compound], the “Selectivity (ratio of Ki (5-HT2) with Ki (5-HT7))” value in assay [1] is given as more than 278. In addition, the Ki in assay [1] (setting [4]) was 3.6 nM; in assay [2] (setting [3]), more than 1000 nM.
On the same counts, the results for `COc1ccccc1N1CCN(CCCC[C@@]23CCCc4cccc(c42)NC3=O)CC1` [Synthesis Example 14, (S)-2a-(4-(4-(2-methoxyphenyl)piperazinyl)butyl)-2a,3,4,5-tetrahydro-1H-benz[cd]indol-2-one] are 49, 1.7 nM and 84 nM.
Take `O=C1Nc2cccc3c2[C@@]1(CCCCN1CC=C(c2ccccc2)CC1)CCC3` [Synthesis Example 15, (S)-2a-(4-(4-phenyl-1,2,3,6-tetrahydropyridin)-1-ylbutyl)-2a,3,4,5-tetrahydro-1H-benz[cd]indol-2-one]: in assay [1], the inhibition constant (Ki) was found to be 1.3 nM and the “Selectivity (ratio of Ki (5-HT2) with Ki (5-HT7))” value was found to be 32. In assay [2], this molecule registered a Ki of 42 nM.
For the molecule `CN(C)C(=O)n1c2c(c3ccccc31)CCN(CCCC[C@@]13CCCc4cccc(c41)NC3=O)C2` [Synthesis Example 17, (S)-2a-[4-(9-dimethylcarbamoyl-2,3,4,9-tetrahydro-1H-pyrido[3,4-b]indol-2-yl)-butyl]-2a,3,4,5-tetrahydro-1H-benz[cd]indol-2-one], the “Selectivity (ratio of Ki (5-HT2) with Ki (5-HT7))” value in assay [1] is given as more than 250. The Ki in assay [1] (setting [4]) was 4 nM; in assay [2] (setting [3]), more than 1000 nM.
On the same counts, the results for `O=C1Nc2cccc3c2[C@@]1(CCCCN1CCc2ccccc2C1)CCC3` [Synthesis Example 18, (S)-2a-(4-(1,2,3,4-tetrahydroisoquinolin-2-yl)-butyl)-2a,3,4,5-tetrahydro-1H-benz[cd]indol-2-one] are more than 125, 7.7 nM and more than 1000 nM.
The like results for `CNC(=O)Cn1c2c(c3ccccc31)CCN(CCCC[C@@]13CCCc4cccc(c41)NC3=O)C2` [Synthesis Example 22, (S)-2a-(4-(9-methylcarbamoylmethyl-2,3,4,9-tetrahydro-1H-pyrido[3,4-b]indol-2-yl)butyl)-2a,3,4,5-tetrahydro-1H-benz[cd]indol-2-one] were, in that order, more than 667, 1.5 nM and more than 1000 nM.
